These results are taken from patent US6924302B2, “Substituted triazole diamine derivatives as kinase inhibitors” (Ortho McNeil Pharmaceutical, Inc., priority 2000, dated 2005).

Where two headings read alike, the source gives them in different places.

The target in assay [1] is T1, VEGF-R (vascular endothelial growth factor receptor-2) (Rattus norvegicus, UniProt O08775).
T1 construct: polyhistidine (6xHIS) (N)
The assay can be described thus: VEGF-R Screening Assay. It is filed as biochemical. The settings on record: read-out: VEGF-R IC50.

Assay [2] relates to SK-OV-3 ovarian adenocarcinoma. Briefly: Inhibition of Cell Proliferation (14C-thymidine incorporation), SK-OV-3. It is filed as cell-based. To be noted: Homo sapiens, SK-OV-3 cell line. Here is the method:
The ability of a test compound to inhibit the proliferation of cell growth was determined by measuring incorporation of ^14C-labelled thymidine into newly synthesized DNA within the cells. […] Cells were trypsinized and counted and 3000-8000 cells were added to each well of a 96-well CytoStar tissue culture treated scintillating microplate (Amersham #RPNQ0160) in complete medium in a volume of 100 μl. Cells were incubated for 24 hours in complete medium at 37° C. in an atmosphere containing 5% CO2. Next, 1 μl of test compound in 100% DMSO was added to the wells of the plate. DMSO only was added to control wells. Cells were incubated for 24 more hours in complete medium at 37° C. in an atmosphere containing 5% CO2. […] The plate was incubated for 24 hours at 37° C. plus 5% CO2 in drug plus ^14C-thymidine. The contents of the plate were discarded into a ^14C radioactive waste container by inverting the plate and the plate was washed twice with 200 μl PBS. 200 μl of PBS is added to each well. […] The degree of methyl ^14C-thymidine incorporation was quantified on a Packard Top Count.

Assay [3] concerns the target T2, HER2 (human epidermal growth factor receptor-2) (Homo sapiens, UniProt P04626).
T2 construct: begins at amino acid 676 followed by the remainder of the HER2 cytoplasmic domain; polyhistidine (N)
The assay can be described thus: Kinase Selectivity Assay HER2. It is filed as biochemical. The essentials:
(§1)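 Radiometric Flashplate format: ^33P-γ-ATP transfer to immobilized biotinylated peptide, 1 h, 30° C, 1% DMSO final, enzyme in 50 mM Tris-HCl pH=8.0 + 0.1% BSA. Duplicate 8-point dilution, 100 uM down to 10 pM. IC50 from % inhibition of plate max signal versus log conc.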

The target of the next assay is FGF-R2 (Homo sapiens, UniProt P21802). Briefly: Kinase Selectivity Assay FGF-R2. It is filed as biochemical. The settings on record: Tables 2a-2k. Here is the method: Assays to test compound inhibition of other kinases were preformed using methods that measure the amount of phosphorylation of a biotinylated peptide substrate. Biotinylated peptide substrates were selected from the literature as appropriate for the enzyme being evaluated. […] Assay conditions vary slightly for each protein kinase, for example, insulin receptor kinase requires 10 mM MnCl2 for activity and Calmodulin-dependent protein kinase requires calmodulin and 10 mM CaCl2. These assay conditions are known in the art. The reaction mixture was dispensed into the wells of a streptavidin coated Flashplate and 1 μl drug stock in 100% DMSO was added to a 100 μl reaction volume resulting in a final concentration of 1% DMSO on the reaction. Enzyme was diluted in 50 mM Tris-HCl pH=8.0, 0.1% BSA and add to each well. The reaction was incubated for one hour at 30° C. in the presence of compound. After one hour the reaction mix was aspirated from the plate and the plate was washed with PBS containing 100 mM EDTA. The plate was read on a scintillation counter to determine ^33P-γ-ATP incorporated into the immobilized peptide. Test compounds were assayed in duplicate at 8 concentrations [100 uM, 10 uM, 1 uM, 100 nM, 10 nM, 1 nM, 100 pM, 10 pM]. A maximum and minimum signal for the assay was determined on each plate. The IC50 was calculated from the dose response curve of the percent inhibition of the maximum signal in the assay according to the formula [max signal—background/test compound signal—background (100)=% inhibition] by graphing the percent inhibition against the log concentration of test compound. Known inhibitor compounds appropriate for the kinase being assayed were also included on each plate.
Sequence of FGF-R2 (P21802 22-821, species assumed): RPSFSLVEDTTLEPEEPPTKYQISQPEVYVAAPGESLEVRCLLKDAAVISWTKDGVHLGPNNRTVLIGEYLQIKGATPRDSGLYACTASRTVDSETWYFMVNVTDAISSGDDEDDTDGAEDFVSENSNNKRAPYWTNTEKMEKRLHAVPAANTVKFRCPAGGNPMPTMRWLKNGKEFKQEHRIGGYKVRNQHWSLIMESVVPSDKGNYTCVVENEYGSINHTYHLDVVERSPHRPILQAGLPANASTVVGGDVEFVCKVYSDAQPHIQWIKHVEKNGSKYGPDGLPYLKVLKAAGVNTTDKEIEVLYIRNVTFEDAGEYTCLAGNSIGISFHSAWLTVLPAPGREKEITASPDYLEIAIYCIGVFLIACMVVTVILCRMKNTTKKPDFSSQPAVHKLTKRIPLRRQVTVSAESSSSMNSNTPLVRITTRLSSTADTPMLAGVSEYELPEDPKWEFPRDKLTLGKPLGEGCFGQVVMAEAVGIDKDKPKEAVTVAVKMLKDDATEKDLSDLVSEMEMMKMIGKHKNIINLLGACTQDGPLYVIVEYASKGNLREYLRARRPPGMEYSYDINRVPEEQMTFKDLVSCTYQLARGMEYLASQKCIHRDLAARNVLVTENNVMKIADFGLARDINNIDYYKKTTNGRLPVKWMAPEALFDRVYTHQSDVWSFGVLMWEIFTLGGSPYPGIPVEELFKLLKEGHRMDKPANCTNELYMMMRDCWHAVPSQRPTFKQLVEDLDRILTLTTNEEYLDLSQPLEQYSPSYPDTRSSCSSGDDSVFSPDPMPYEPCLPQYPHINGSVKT

The target in assay [4] is T3, CDK2 in complex with cyclin A (Homo sapiens, UniProt P24941).
T3 construct: purchased Upstate Biotech
The assay can be described thus: Kinase Selectivity Assay CDK2. The class given is biochemical. The settings on record: Table 1. In outline:
as §1

Where [5] appears, read: Kinase Selectivity, Tables 2a-2k.
Setting [6] is: Kinase Selectivity, Tables 2a-2k, read-out: HER2 Kinase IC50.

T2 sequence (P04626 676-1255 limits assumed): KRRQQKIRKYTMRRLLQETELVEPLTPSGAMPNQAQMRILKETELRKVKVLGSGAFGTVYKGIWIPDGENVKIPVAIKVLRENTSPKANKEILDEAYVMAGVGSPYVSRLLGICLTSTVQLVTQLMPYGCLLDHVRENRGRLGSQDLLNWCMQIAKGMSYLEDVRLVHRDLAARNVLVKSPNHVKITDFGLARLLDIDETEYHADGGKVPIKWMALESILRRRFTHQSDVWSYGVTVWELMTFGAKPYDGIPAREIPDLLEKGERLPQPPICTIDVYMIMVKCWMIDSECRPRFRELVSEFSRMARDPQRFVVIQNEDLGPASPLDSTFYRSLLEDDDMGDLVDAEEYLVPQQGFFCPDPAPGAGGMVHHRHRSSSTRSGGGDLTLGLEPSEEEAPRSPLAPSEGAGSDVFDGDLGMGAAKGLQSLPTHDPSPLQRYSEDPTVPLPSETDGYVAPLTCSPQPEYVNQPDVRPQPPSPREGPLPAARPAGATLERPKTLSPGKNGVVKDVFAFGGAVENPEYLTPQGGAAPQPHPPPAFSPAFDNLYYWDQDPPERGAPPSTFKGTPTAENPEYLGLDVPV
T1 sequence (O08775 786-1343): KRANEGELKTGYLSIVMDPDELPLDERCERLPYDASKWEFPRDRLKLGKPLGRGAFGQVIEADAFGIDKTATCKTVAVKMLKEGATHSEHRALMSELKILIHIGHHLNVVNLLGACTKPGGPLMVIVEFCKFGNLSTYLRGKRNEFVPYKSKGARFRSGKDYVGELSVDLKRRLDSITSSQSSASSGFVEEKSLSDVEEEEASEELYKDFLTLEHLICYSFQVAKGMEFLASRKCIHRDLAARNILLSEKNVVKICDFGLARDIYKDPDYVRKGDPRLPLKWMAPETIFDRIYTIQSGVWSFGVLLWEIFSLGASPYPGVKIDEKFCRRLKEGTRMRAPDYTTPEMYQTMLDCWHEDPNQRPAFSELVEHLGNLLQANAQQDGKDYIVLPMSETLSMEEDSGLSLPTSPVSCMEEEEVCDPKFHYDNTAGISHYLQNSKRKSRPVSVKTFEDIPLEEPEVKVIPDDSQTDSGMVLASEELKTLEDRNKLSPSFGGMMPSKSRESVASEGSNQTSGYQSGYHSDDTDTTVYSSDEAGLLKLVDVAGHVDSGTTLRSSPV

A word on the IC50: it is the concentration that gives 50% inhibition. `Nc1nc(Nc2ccc(S(N)(=O)=O)cc2)nn1C(=O)c1sccc1F` [Cpd 16, 4-[[5-amino-1-[(3-fluoro-2-thienyl)carbonyl]-1H-1,2,4-triazol-3-yl]amino]-benzenesulfonamide]: the IC50 came out at 0.0137 µM in assay [1] (setting [5]), 0.0137 µM in assay [1] (Table 1) and 2110 nM in assay [2].
`Nc1nc(Nc2ccc(S(N)(=O)=O)cc2)nn1C(=O)c1sccc1Cl` [Cpd 17, 4-[[5-amino-1-[(3-chloro-2-thienyl)carbonyl]-1H-1,2,4-triazol-3-yl]amino]-benzenesulfonamide]: the IC50 in assay [1] (setting [5]) was determined as 0.027 µM; in assay [1] (Table 1), 0.027 µM; in assay [2], 3900 nM.
On to `Nc1nc(Nc2ccc(S(N)(=O)=O)cc2)nn1C(=O)c1ccsc1` [Cpd 30, 4-[[5-amino-1-(3-thienylcarbonyl)-1H-1,2,4-triazol-3-yl]amino]-benzenesulfonamide], for which the IC50 in assay [1] (setting [5]) amounted to 0.0406 µM; in assay [1] (Table 1), 0.0406 µM; in assay [2], 5750 nM.
Take `CC(C)(C)c1ccc(C(=O)n2nc(Nc3ccc(S(N)(=O)=O)cc3)nc2N)s1` [Cpd 51, 4-[[5-amino-1-[[5-(1,1-dimethylethyl)-2-thienyl]carbonyl]-1H-1,2,4-triazol-3-yl]amino]-benzenesulfonamide]: the IC50 in assay [1] (setting [5]) amounted to 0.019 µM; in assay [1] (Table 1) it was 0.019 µM; in assay [3] (setting [6]), 0.031 µM; in assay [3] (Table 1, read-out: HER2 IC50), 0.031 µM.
Take `Cc1ccccc1C(=O)n1nc(Nc2ccc(S(N)(=O)=O)cc2)nc1N` [Cpd 57, 4-[[5-amino-1-(2-methylbenzoyl)-1H-1,2,4-triazol-3-yl]amino]-benzenesulfonamide]: the IC50 in assay [3] (setting [6]) is 1.32 µM; in assay [3] (Table 1, read-out: HER2 IC50), 1.32 µM.
`CC(O)c1ccc(F)c(C(=O)n2nc(Nc3ccc(S(N)(=O)=O)cc3)nc2N)c1F` (centres unmarked) [Cpd 58, 4-[[5-amino-1-[2,6-difluoro-3-(1-hydroxyethyl)benzoyl]-1H-1,2,4-triazol-3-yl]amino]-benzenesulfonamide]: the concentration for half-maximal inhibition (IC50) in assay [1] (setting [5]) is 0.419 µM; in assay [1] (Table 1), 0.42 µM; in assay [3] (setting [6]), 0.654 µM; in assay [3] (Table 1, read-out: HER2 IC50), 0.65 µM; at FGF-R2 it was 0.096 µM.
`Cc1ccc(F)c(C(=O)n2nc(Nc3ccc(S(N)(=O)=O)cc3)nc2N)c1Cl` [Cpd 69, 4-[[5-amino-1-(2-chloro-6-fluoro-3-methylbenzoyl)-1H-1,2,4-triazol-3-yl]amino]-benzenesulfonamide] yielded a half-maximal inhibitory concentration (IC50) on FGF-R2 of 0.365 µM.
In the case of `Nc1nc(Nc2ccc(S(N)(=O)=O)cc2)nn1C(=O)c1c(F)cccc1Cl` [Cpd 70, 4-[[5-amino-1-(2-chloro-6-fluorobenzoyl)-1H-1,2,4-triazol-3-yl]amino]-benzenesulfonamide], the half-maximal inhibitory concentration (IC50) in assay [3] (setting [6]) came to 1.23 µM; in assay [3] (Table 1, read-out: HER2 IC50), 1.23 µM; at FGF-R2 it was 0.273 µM.
`CN1CCN(c2ccc(Nc3nc(N)n(C(=O)c4c(F)cccc4F)n3)cc2)CC1` [Cpd 71, 1-(2,6-difluorobenzoyl)-N^3-[4-(4-methyl-1-piperazinyl)phenyl]-1H-1,2,4-triazole-3,5-diamine]: the IC50 in assay [1] (setting [5]) worked out at 0.43 µM; in assay [1] (Table 1), 0.43 µM; in assay [3] (setting [6]), 1.3 µM; in assay [3] (Table 1, read-out: HER2 IC50), 1.3 µM; at FGF-R2, 0.441 µM.
As to `CNS(=O)(=O)c1ccc(Nc2nc(N)n(C(=O)c3c(F)cccc3F)n2)cc1` [Cpd 80, 4-[[5-amino-1-(2,6-difluorobenzoyl)-1H-1,2,4-triazol-3-yl]amino]-N-methyl-benzenesulfonamide], the IC50 was found to be 0.935 µM in assay [1] (Table 1); 1.12 µM in assay [3] (Table 1, read-out: HER2 IC50); 16300 nM in assay [2].
As for `CNS(=O)(=O)c1ccc(Nc2nc(N)n(C(=O)c3sccc3C)n2)cc1` [Cpd 82, 4-[[5-amino-1-[(3-methyl-2-thienyl)carbonyl]-1H-1,2,4-triazol-3-yl]amino]-N-methyl-benzenesulfonamide], the half-inhibitory concentration (IC50) in assay [2] was 921 nM; against FGF-R2 it was 0.089 µM.
On the same counts, the results for `CCc1ccc(C(=O)n2nc(Nc3ccc(S(=O)(=O)NC)cc3)nc2N)s1` [Cpd 84, 4-[[5-amino-1-[(5-ethyl-2-thienyl)carbonyl]-1H-1,2,4-triazol-3-yl]amino]-N-methyl-benzenesulfonamide] are 461 nM and 0.3 µM.
As for `CCc1ccc(C(=O)n2nc(Nc3ccc(S(=O)(=O)NCCN(C)C)cc3)nc2N)s1` [Cpd 103, 4-[[5-amino-1-[(5-ethyl-2-thienyl)carbonyl]-1H-1,2,4-triazol-3-yl]amino]-N-[2-(dimethylamino)ethyl]-benzenesulfonamide], the IC50 was 0.045 µM in assay [1] (setting [5]); 0.0449 µM in assay [1] (Table 1); 0.001 µM in assay [4]; 0.228 µM in assay [3] (setting [6]); 0.228 µM in assay [3] (Table 1, read-out: HER2 IC50); 0.17 µM against FGF-R2.
Consider `Cc1ccsc1C(=O)n1nc(Nc2ccc(S(=O)(=O)NCCN(C)C)cc2)nc1N` [Cpd 104, 4-[[5-amino-1-[(3-methyl-2-thienyl)carbonyl]-1H-1,2,4-triazol-3-yl]amino]-N-[2-(dimethylamino)ethyl]-benzenesulfonamide], for which the 50% inhibitory concentration (IC50) amounted to 0.001 µM in assay [4] and 0.2 µM against FGF-R2.
As for `Cc1cc(C)c(C(=O)n2nc(Nc3ccc(NS(C)(=O)=O)cc3)nc2N)s1` [Cpd 108, N-[4-[[5-amino-1-[(3,5-dimethyl-2-thienyl)carbonyl]-1H-1,2,4-triazol-3-5 yl]amino]phenyl]-methanesulfonamide], the half-maximal inhibitory concentration (IC50) amounted to 0.03 µM in assay [1] (setting [5]); 0.0307 µM in assay [1] (Table 1); 0.012 µM in assay [4]; 0.042 µM in assay [3] (setting [6]); 0.0417 µM in assay [3] (Table 1, read-out: HER2 IC50); 0.307 µM on FGF-R2.
Take `Cc1ccsc1C(=O)n1nc(Nc2ccc(N3CCNC3=O)cc2)nc1N` [Cpd 113, 1-[4-[[5-amino-1-[(3-methyl-2-thienyl)carbonyl]-1H-1,2,4-triazol-3-yl]amino]phenyl]-2-imidazolidinone]: the IC50 was 0.03 µM in assay [1] (setting [5]); 0.0302 µM in assay [1] (Table 1); 0.068 µM in assay [3] (setting [6]); 0.068 µM in assay [3] (Table 1, read-out: HER2 IC50); 281 nM in assay [2].
As for `Cc1ccsc1C(=O)n1nc(Nc2ccc(N3CCCS3(=O)=O)cc2)nc1N` [Cpd 116, N^3-[4-(1,1-dioxido-2-isothiazolidinyl)phenyl]-1-[(3-methyl-2-thienyl)carbonyl]-1H-1,2,4-triazole-3,5-diamine], the IC50 was 0.026 µM in assay [1] (setting [5]); 0.0261 µM in assay [1] (Table 1); 0.001 µM in assay [4]; 0.131 µM in assay [3] (setting [6]); 0.131 µM in assay [3] (Table 1, read-out: HER2 IC50).
With `Nc1nc(Nc2ccc(N3CCCS3(=O)=O)cc2)nn1C(=O)c1c(F)cccc1F` [Cpd 117], the IC50 in assay [1] (setting [5]) was found to be 0.908 µM; in assay [1] (Table 1), 0.908 µM; in assay [4] it was 0.007 µM.
As to `Nc1nc(Nc2ccc(S(=O)(=O)Nc3ccccn3)cc2)nn1C(=O)c1c(F)cccc1F` [Cpd 118, 4-[[5-amino-1-(2,6-difluorobenzoyl)-1H-1,2,4-triazol-3-yl]amino]-N-(2-pyridinyl)-benzenesulfonamide], the 50% inhibitory concentration (IC50) in assay [1] (setting [5]) was 0.397 µM; in assay [1] (Table 1) it was 0.397 µM; in assay [4], 0.021 µM; in assay [3] (setting [6]), over 10 µM; in assay [3] (Table 1, read-out: HER2 IC50) it was over 10 µM.
For `Cc1cc(C)c(C(=O)n2nc(Nc3ccc(S(=O)(=O)Nc4ccccn4)cc3)nc2N)s1` [Cpd 120], the concentration for half-maximal inhibition (IC50) in assay [1] (setting [5]) amounted to 0.082 µM; in assay [1] (Table 1) it was 0.082 µM; in assay [4], 0.009 µM.
Regarding `Cc1ccc(F)c(C(=O)n2nc(N)nc2Nc2ccc(S(N)(=O)=O)cc2)c1F` [Cpd 123, 4-[[3-amino-1-(2,6-difluoro-3-methylbenzoyl)-1H-1,2,4-triazol-5-yl]amino]-benzenesulfonamide], the IC50 in assay [4] is 0.031 µM; in assay [3] (setting [6]), over 100 µM; in assay [3] (Table 1, read-out: HER2 IC50), about 100 µM.
